Experimental data as given in publication PMC12008195 (Scientific Reports, 2025).

How the values were obtained:
[1] = test system: WI-38 (human lung fibroblasts); conditions: read-out: IC50 WI-38 human fibroblasts; MTT, normal non-cancer cells; cited from earlier work
[2] = test system: HCT-116 (human colon cancer); conditions: read-out: IC50 HCT-116; MTT, 24-hour exposure; cited from earlier work
[3] = test system: HepG2 (hepatocellular carcinoma); conditions: read-out: IC50 HepG-2; MTT, 24-hour exposure; cited from earlier work
HepG-2 cells [4] = test: Annexin-V/propidium iodide staining assay; type: cell-based, human
[5] = cited from earlier work
[6] = test system: MCF-7 (mammary gland breast cancer); conditions: read-out: IC50 MCF-7; MTT, 24-hour exposure; cited from earlier work
HepG-2 cells [7] = test: Cell cycle analysis, propidium iodide flow cytometry; type: cell-based, human; conditions: 3b at 6 µM
Bcl-2 = test: RT-PCR gene expression of Bcl-2 in HepG-2 cells; type: cell-based, human; conditions: versus untreated cells

For Cc1cc2c(cc1C)N[C@H](c1ccccc1)[C@@H](O)C(=O)N2 [Compound 3b, (3R,4R)−3-hydroxy-7,8-dimethyl-4-phenyl-1,3,4,5-tetrahydro-2 H-1,5-benzodiazepin-2-one], the IC50 [1] is listed as 14 µM, the IC50 [2] is listed as 9.18 µM and the IC50 [3] is listed as 6.13 µM. For the same molecule, the “Fold increase in the proportion of necrotic cells versus control” value (HepG-2 cells [4]) was 2.6 fold, the “Lipinski's rule of five” value ([5]; MW ≤ 500 Da, LogP < 5, nHBD ≤ 5, nHBA ≤ 10, TPSA < 140 Å2) was “satisfied” and the Predicted oral bioavailability ([5]; in silico studies) was “good”. The IC50 [6] was 7.86 µM, the “Increase of DNA content at G2/M phase compared to non-treated cells” value (HepG-2 cells [7]) was 28% and the “Gene expression fold change Bcl-2” value (Bcl-2) was 0.339 fold.
